# In paper PMC12155096 (International Journal of Molecular Sciences, 2025):
# Where a name gives a salt, the structure may show the parent alone.
# Target: human CYP2C9 (Homo sapiens, UniProt P11712)
# Assay: biochemical
# Conditions: CYP2C9 AC50 (half-maximal activity concentration); call rule not given here
# Chain of human CYP2C9 (P11712 whole entry): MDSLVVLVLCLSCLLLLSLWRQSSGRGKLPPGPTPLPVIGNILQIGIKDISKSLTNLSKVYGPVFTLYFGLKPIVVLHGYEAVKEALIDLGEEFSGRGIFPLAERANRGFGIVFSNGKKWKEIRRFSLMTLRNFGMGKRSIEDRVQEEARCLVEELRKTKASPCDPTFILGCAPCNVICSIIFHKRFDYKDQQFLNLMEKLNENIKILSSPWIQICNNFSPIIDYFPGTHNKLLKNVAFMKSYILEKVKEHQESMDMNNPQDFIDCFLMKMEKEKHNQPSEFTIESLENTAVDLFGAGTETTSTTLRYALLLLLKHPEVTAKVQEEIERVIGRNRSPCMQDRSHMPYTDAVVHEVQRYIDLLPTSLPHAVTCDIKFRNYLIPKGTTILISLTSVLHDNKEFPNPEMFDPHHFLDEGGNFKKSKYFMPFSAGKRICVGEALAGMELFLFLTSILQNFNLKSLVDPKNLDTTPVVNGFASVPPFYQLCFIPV
row,SMILES,AC50 [µM]
1,Cc1ccc(C(=O)c2ccccc2)cc1 [4-Methylbenzophenone],34.3
2,O=C(c1ccccc1)C(O)c1ccccc1 (centres unmarked) [Benzoin],2.27
3,c1ccc(CSCc2ccccc2)cc1 [Benzyl sulfide],29.8
4,COC(=O)c1cc(Oc2ccc(Cl)cc2Cl)ccc1[N+](=O)[O-] [Bifenox],7.1
5,CCCCC(CC)COP(=O)(O)OCC(CC)CCCC (centres unmarked) [Bis(2-ethylhexyl) phosphate],16.5
6,O=C1C=CC(=O)N1c1ccc(Cc2ccc(N3C(=O)C=CC3=O)cc2)cc1 [Bismaleimide],4.93
7,CCCCCCCC(=O)Oc1c(Br)cc(C#N)cc1Br [Bromoxynil octanoate],34.5
8,C#CC(C)N(C)C(=O)Nc1ccc(Cl)cc1 (centres unmarked) [Buturon],22.8
9,CCOP(=O)(Sc1ccccc1)Sc1ccccc1 [Edifenphos],29.7
10,CCOC(=O)[C@@H](C)Oc1ccc(Oc2nc3ccc(Cl)cc3o2)cc1 [Fenoxaprop-P-ethyl],55
11,COc1ccc(C(=O)c2ccc(C)cc2)c(O)c1 [Mexenone],14.7
12,CN(C/C=C/c1ccccc1)Cc1cccc2ccccc12 [Naftifine hydrochloride],12.5
13,CC1(C)C(C=C(Cl)Cl)C1C(=O)OCc1cccc(Oc2ccccc2)c1 (centres unmarked) [Permethrin],11.2
14,CCCSP(=O)(OCC)Oc1ccc(Br)cc1Cl (centres unmarked) [Profenofos],9.76
15,CC(=O)[C@H]1CC[C@H]2[C@@H]3CCC4=CC(=O)CC[C@]4(C)[C@H]3CC[C@]12C [Progesterone],26.5
16,CCOC(=O)C(C)Oc1ccc(Oc2cnc3cc(Cl)ccc3n2)cc1 (centres unmarked) [Quizalofop-ethyl],17.4
17,COP(=O)(OC)OC(=CCl)c1cc(Cl)c(Cl)cc1Cl [Tetrachlorovinphos],29

# Target: T1, human CYP2C19 (Homo sapiens, UniProt P33261)
# T1 sequence (P33261 whole entry): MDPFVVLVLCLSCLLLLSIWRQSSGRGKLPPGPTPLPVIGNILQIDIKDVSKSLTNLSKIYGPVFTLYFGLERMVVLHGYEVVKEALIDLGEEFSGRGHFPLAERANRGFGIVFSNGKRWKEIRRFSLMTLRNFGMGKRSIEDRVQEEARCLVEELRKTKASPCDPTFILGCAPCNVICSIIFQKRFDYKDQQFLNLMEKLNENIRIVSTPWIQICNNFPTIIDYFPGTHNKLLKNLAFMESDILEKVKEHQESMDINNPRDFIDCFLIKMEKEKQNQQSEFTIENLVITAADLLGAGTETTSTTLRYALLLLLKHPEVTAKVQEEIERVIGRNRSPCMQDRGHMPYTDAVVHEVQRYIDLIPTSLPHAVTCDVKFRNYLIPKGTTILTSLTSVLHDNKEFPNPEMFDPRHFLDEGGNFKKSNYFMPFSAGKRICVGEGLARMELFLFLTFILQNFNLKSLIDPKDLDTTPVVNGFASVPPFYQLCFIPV
# Assay: not given
# Conditions: not given
row,SMILES,CYP2C19 AC50 (half-maximal activity concentration)
1,Oc1c(Cl)c(Cl)c(Cl)c(Cl)c1Cl [Sodium pentachlorophenate],Inactive

# Target: CYP3A4 (Homo sapiens, UniProt P08684)
# Sequence (P08684 whole entry): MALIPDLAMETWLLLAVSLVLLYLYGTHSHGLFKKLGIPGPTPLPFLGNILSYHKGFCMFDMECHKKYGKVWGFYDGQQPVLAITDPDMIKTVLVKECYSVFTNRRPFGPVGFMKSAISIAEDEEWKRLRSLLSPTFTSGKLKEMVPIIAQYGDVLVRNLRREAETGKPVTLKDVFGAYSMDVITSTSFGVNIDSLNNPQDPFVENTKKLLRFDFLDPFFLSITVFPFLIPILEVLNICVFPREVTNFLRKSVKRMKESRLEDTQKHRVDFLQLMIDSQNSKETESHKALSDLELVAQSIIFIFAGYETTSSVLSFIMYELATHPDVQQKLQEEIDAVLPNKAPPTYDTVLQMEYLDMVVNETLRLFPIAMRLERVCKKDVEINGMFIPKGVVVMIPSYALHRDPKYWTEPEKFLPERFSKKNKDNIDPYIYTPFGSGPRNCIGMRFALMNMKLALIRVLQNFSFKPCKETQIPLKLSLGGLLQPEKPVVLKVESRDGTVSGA
# Assay: biochemical
# Conditions: CYP3A4 AC50 (half-maximal activity concentration)
row,SMILES,AC50 [µM]
1,Cc1ccc(C(=O)c2ccccc2)cc1 [4-Methylbenzophenone],16
2,O=C(c1ccccc1)C(O)c1ccccc1 (centres unmarked) [Benzoin],22.8
3,c1ccc(CSCc2ccccc2)cc1 [Benzyl sulfide],7.5
4,COC(=O)c1cc(Oc2ccc(Cl)cc2Cl)ccc1[N+](=O)[O-] [Bifenox],5.23
5,CCCCC(CC)COP(=O)(O)OCC(CC)CCCC (centres unmarked) [Bis(2-ethylhexyl) phosphate],37.6
6,O=C1C=CC(=O)N1c1ccc(Cc2ccc(N3C(=O)C=CC3=O)cc2)cc1 [Bismaleimide],56.6
7,CCCCCCCC(=O)Oc1c(Br)cc(C#N)cc1Br [Bromoxynil octanoate],15.4
8,C#CC(C)N(C)C(=O)Nc1ccc(Cl)cc1 (centres unmarked) [Buturon],9.33
9,CCOP(=O)(Sc1ccccc1)Sc1ccccc1 [Edifenphos],8.65
10,CCOC(=O)[C@@H](C)Oc1ccc(Oc2nc3ccc(Cl)cc3o2)cc1 [Fenoxaprop-P-ethyl],47.6
11,COc1ccc(C(=O)c2ccc(C)cc2)c(O)c1 [Mexenone],6.22
12,CN(C/C=C/c1ccccc1)Cc1cccc2ccccc12 [Naftifine hydrochloride],12.4
13,CC1(C)C(C=C(Cl)Cl)C1C(=O)OCc1cccc(Oc2ccccc2)c1 (centres unmarked) [Permethrin],10.9
14,CCCSP(=O)(OCC)Oc1ccc(Br)cc1Cl (centres unmarked) [Profenofos],3.25
15,CC(=O)[C@H]1CC[C@H]2[C@@H]3CCC4=CC(=O)CC[C@]4(C)[C@H]3CC[C@]12C [Progesterone],2.35
16,CCOC(=O)C(C)Oc1ccc(Oc2cnc3cc(Cl)ccc3n2)cc1 (centres unmarked) [Quizalofop-ethyl],12.3
17,Oc1c(Cl)c(Cl)c(Cl)c(Cl)c1Cl [Sodium pentachlorophenate],71
18,COP(=O)(OC)OC(=CCl)c1cc(Cl)c(Cl)cc1Cl [Tetrachlorovinphos],3.72

# Same assay, conditions: CYP3A4 IC50 (half-maximal inhibitory concentration)
row,SMILES,IC50 [µM]
1,CC(C)C(O)(c1ccc(OC(F)(F)F)cc1)c1cncnc1 (centres unmarked) [Flurprimidol],0.54

# Target: T2, human CYP1A2 (Homo sapiens, UniProt P05177)
# T2 sequence (P05177 1-516): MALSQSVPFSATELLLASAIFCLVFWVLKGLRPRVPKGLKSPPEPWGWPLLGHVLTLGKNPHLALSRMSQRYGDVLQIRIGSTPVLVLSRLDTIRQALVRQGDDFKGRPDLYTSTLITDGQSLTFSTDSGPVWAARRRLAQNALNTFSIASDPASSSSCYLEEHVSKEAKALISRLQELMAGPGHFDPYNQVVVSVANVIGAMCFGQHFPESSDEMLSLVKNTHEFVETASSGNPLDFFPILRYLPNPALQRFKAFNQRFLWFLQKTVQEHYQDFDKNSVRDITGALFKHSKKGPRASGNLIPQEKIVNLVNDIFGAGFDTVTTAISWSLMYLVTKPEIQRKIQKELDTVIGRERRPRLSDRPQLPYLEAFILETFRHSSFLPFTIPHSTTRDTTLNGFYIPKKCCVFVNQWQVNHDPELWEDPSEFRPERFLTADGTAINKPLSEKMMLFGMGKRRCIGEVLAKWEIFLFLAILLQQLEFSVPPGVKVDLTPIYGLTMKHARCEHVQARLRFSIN
# Assay: biochemical
# Conditions: CYP1A2 AC50 (half-maximal activity concentration)
row,SMILES,AC50 [µM]
1,Cc1ccc(C(=O)c2ccccc2)cc1 [4-Methylbenzophenone],34.3
2,O=C(c1ccccc1)C(O)c1ccccc1 (centres unmarked) [Benzoin],22.6
3,c1ccc(CSCc2ccccc2)cc1 [Benzyl sulfide],27.3
4,COC(=O)c1cc(Oc2ccc(Cl)cc2Cl)ccc1[N+](=O)[O-] [Bifenox],20.4
5,CCCCC(CC)COP(=O)(O)OCC(CC)CCCC (centres unmarked) [Bis(2-ethylhexyl) phosphate],82.9
6,O=C1C=CC(=O)N1c1ccc(Cc2ccc(N3C(=O)C=CC3=O)cc2)cc1 [Bismaleimide],23.9
7,CCCCCCCC(=O)Oc1c(Br)cc(C#N)cc1Br [Bromoxynil octanoate],15
8,C#CC(C)N(C)C(=O)Nc1ccc(Cl)cc1 (centres unmarked) [Buturon],5.47
9,CCOP(=O)(Sc1ccccc1)Sc1ccccc1 [Edifenphos],13
10,CCOC(=O)[C@@H](C)Oc1ccc(Oc2nc3ccc(Cl)cc3o2)cc1 [Fenoxaprop-P-ethyl],23.8
11,COc1ccc(C(=O)c2ccc(C)cc2)c(O)c1 [Mexenone],16.1
12,CN(C/C=C/c1ccccc1)Cc1cccc2ccccc12 [Naftifine hydrochloride],12.5
13,CCCSP(=O)(OCC)Oc1ccc(Br)cc1Cl (centres unmarked) [Profenofos],4.52
14,CC(=O)[C@H]1CC[C@H]2[C@@H]3CCC4=CC(=O)CC[C@]4(C)[C@H]3CC[C@]12C [Progesterone],29.9
15,CCOC(=O)C(C)Oc1ccc(Oc2cnc3cc(Cl)ccc3n2)cc1 (centres unmarked) [Quizalofop-ethyl],36.3
16,Oc1c(Cl)c(Cl)c(Cl)c(Cl)c1Cl [Sodium pentachlorophenate],73.9
17,COP(=O)(OC)OC(=CCl)c1cc(Cl)c(Cl)cc1Cl [Tetrachlorovinphos],3

# Same assay, conditions: CYP1A2 IC50 (half-maximal inhibitory concentration)
row,SMILES,IC50 [µM]
1,CC(C)C(O)(c1ccc(OC(F)(F)F)cc1)c1cncnc1 (centres unmarked) [Flurprimidol],63.3

# Target: T1, human CYP2C19
# Assay: biochemical
# Conditions: CYP2C19 AC50 (half-maximal activity concentration)
row,SMILES,AC50 [µM]
1,Cc1ccc(C(=O)c2ccccc2)cc1 [4-Methylbenzophenone],13.3
2,O=C(c1ccccc1)C(O)c1ccccc1 (centres unmarked) [Benzoin],15.8
3,c1ccc(CSCc2ccccc2)cc1 [Benzyl sulfide],5.94
4,COC(=O)c1cc(Oc2ccc(Cl)cc2Cl)ccc1[N+](=O)[O-] [Bifenox],2.45
5,CCCCC(CC)COP(=O)(O)OCC(CC)CCCC (centres unmarked) [Bis(2-ethylhexyl) phosphate],40.6
6,O=C1C=CC(=O)N1c1ccc(Cc2ccc(N3C(=O)C=CC3=O)cc2)cc1 [Bismaleimide],8.29
7,CCCCCCCC(=O)Oc1c(Br)cc(C#N)cc1Br [Bromoxynil octanoate],32.5
8,C#CC(C)N(C)C(=O)Nc1ccc(Cl)cc1 (centres unmarked) [Buturon],8.68
9,CCOP(=O)(Sc1ccccc1)Sc1ccccc1 [Edifenphos],8.61
10,CCOC(=O)[C@@H](C)Oc1ccc(Oc2nc3ccc(Cl)cc3o2)cc1 [Fenoxaprop-P-ethyl],62.1
11,COc1ccc(C(=O)c2ccc(C)cc2)c(O)c1 [Mexenone],5.89
12,CN(C/C=C/c1ccccc1)Cc1cccc2ccccc12 [Naftifine hydrochloride],5.52
13,CC1(C)C(C=C(Cl)Cl)C1C(=O)OCc1cccc(Oc2ccccc2)c1 (centres unmarked) [Permethrin],5.91
14,CCCSP(=O)(OCC)Oc1ccc(Br)cc1Cl (centres unmarked) [Profenofos],4.22
15,CC(=O)[C@H]1CC[C@H]2[C@@H]3CCC4=CC(=O)CC[C@]4(C)[C@H]3CC[C@]12C [Progesterone],4.06
16,CCOC(=O)C(C)Oc1ccc(Oc2cnc3cc(Cl)ccc3n2)cc1 (centres unmarked) [Quizalofop-ethyl],36.2
17,COP(=O)(OC)OC(=CCl)c1cc(Cl)c(Cl)cc1Cl [Tetrachlorovinphos],6.81

# Same assay, conditions: CYP2C19 IC50 (half-maximal inhibitory concentration)
row,SMILES,IC50 [µM]
1,CC(C)C(O)(c1ccc(OC(F)(F)F)cc1)c1cncnc1 (centres unmarked) [Flurprimidol],2.67

# Target: human CYP2D6 (Homo sapiens, UniProt P10635)
# Sequence (P10635 whole entry): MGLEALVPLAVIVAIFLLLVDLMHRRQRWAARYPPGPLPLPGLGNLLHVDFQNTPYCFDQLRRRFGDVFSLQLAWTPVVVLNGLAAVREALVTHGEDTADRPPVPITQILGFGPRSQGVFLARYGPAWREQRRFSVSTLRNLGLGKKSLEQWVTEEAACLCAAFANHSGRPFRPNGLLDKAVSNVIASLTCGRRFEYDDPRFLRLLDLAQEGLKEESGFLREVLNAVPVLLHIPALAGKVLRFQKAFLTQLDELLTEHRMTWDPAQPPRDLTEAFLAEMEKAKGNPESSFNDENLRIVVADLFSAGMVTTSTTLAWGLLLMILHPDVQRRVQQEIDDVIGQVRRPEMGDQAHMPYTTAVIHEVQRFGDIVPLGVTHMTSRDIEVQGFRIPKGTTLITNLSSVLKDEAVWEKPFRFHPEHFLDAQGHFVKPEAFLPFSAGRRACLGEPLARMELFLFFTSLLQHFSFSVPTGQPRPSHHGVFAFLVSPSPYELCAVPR
# Assay: biochemical
# Conditions: CYP2D6 AC50 (half-maximal activity concentration)
row,SMILES,AC50 [µM]
1,Cc1ccc(C(=O)c2ccccc2)cc1 [4-Methylbenzophenone],46.2
2,O=C(c1ccccc1)C(O)c1ccccc1 (centres unmarked) [Benzoin],36.7
3,c1ccc(CSCc2ccccc2)cc1 [Benzyl sulfide],61.9
4,COC(=O)c1cc(Oc2ccc(Cl)cc2Cl)ccc1[N+](=O)[O-] [Bifenox],25.3
5,CCCCC(CC)COP(=O)(O)OCC(CC)CCCC (centres unmarked) [Bis(2-ethylhexyl) phosphate],56.6
6,O=C1C=CC(=O)N1c1ccc(Cc2ccc(N3C(=O)C=CC3=O)cc2)cc1 [Bismaleimide],43.6
7,CCCCCCCC(=O)Oc1c(Br)cc(C#N)cc1Br [Bromoxynil octanoate],85.8
8,C#CC(C)N(C)C(=O)Nc1ccc(Cl)cc1 (centres unmarked) [Buturon],55.3
9,CCOP(=O)(Sc1ccccc1)Sc1ccccc1 [Edifenphos],42.7
10,CCOC(=O)[C@@H](C)Oc1ccc(Oc2nc3ccc(Cl)cc3o2)cc1 [Fenoxaprop-P-ethyl],47.5
11,COc1ccc(C(=O)c2ccc(C)cc2)c(O)c1 [Mexenone],56.1
12,CN(C/C=C/c1ccccc1)Cc1cccc2ccccc12 [Naftifine hydrochloride],1.06
13,CC1(C)C(C=C(Cl)Cl)C1C(=O)OCc1cccc(Oc2ccccc2)c1 (centres unmarked) [Permethrin],27.5
14,CCCSP(=O)(OCC)Oc1ccc(Br)cc1Cl (centres unmarked) [Profenofos],13.8
15,CC(=O)[C@H]1CC[C@H]2[C@@H]3CCC4=CC(=O)CC[C@]4(C)[C@H]3CC[C@]12C [Progesterone],47.7
16,CCOC(=O)C(C)Oc1ccc(Oc2cnc3cc(Cl)ccc3n2)cc1 (centres unmarked) [Quizalofop-ethyl],42.5
17,Oc1c(Cl)c(Cl)c(Cl)c(Cl)c1Cl [Sodium pentachlorophenate],2.15
18,COP(=O)(OC)OC(=CCl)c1cc(Cl)c(Cl)cc1Cl [Tetrachlorovinphos],33.7

# Same assay, conditions: CYP2D6 IC50 (half-maximal inhibitory concentration)
row,SMILES,IC50 [µM]
1,CC(C)C(O)(c1ccc(OC(F)(F)F)cc1)c1cncnc1 (centres unmarked) [Flurprimidol],10.3
